Values belong to the substance of their own block, whether it stands above or below them. Where no end group is shown, it is not given here. [ ]: non-standard residue; d: D form. pY = N[C@@H](Cc1ccc(OP(=O)(O)O)cc1)C(=O)O
Key:
[1] = molecular target: T1, SHP-2 tandem (N+C) SH2 domains (Homo sapiens, UniProt Q06124); test: SPR (BIAcore 3000), SHP-2 tandem (N+C) SH2 domains; type: binding; conditions: kinetic (koff/kon), single site model, HBS pH 7.4, 37°C, 50 µl/min, mean, n = 5, SEM
T1 construct: SHP-2 (N+C)SH2 domains (His-tag) (3911); His-tag; host or cells: E. coli BL21(DE3)
T1 sequence (Q06124 1-216 limits assumed): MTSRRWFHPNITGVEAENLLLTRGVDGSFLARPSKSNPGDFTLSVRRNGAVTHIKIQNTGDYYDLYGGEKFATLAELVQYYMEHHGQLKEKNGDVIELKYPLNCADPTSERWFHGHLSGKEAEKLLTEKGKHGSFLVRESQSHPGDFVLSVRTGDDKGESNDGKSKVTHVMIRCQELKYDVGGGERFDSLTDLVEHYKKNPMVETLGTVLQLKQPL
T1 sequence (O95866 182-241 partner limits assumed): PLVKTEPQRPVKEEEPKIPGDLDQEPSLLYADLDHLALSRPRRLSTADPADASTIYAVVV
Description: Experiments were conducted on a BIAcore™ 3000 in HBS buffer (0.01 M HEPES, pH 7.4, containing 0.15 M NaCl, 3 mM EDTA, and 0.005% v/v P-20, GE Life Sciences, Amersham, UK). Streptavidin was coupled to a research grade CM5 chip (GE Life Sciences, Amersham, UK) as previously described [12], [13]. Protein-peptide interactions were carried out a rate of 10 µl/min at a constant temperature of 37°C to more accurately reflect physiological conditions. Biotinylated peptides were bound to the streptavidin-coated CM5 chips at 37°C to between 25–50 RU [14]. Purified monomeric SH2 domains were passed over the immobilised peptides at a range of concentrations. Anti-phosphotyrosine monoclonal antibody (Sigma, Poole, U.K.) was passed over the chip to saturation at the end of each experiment to verify peptide coverage on the chip. Binding affinities for the single ITIM/ITSM peptides were determined by plotting equilibrium binding measurements (RU) against SH2 domain protein concentration (Origin 8, OriginLab, MA, USA). […] For the 60-mer peptides, SH2 domains were passed over the chip surface at 50 µl/min. KD was determined as Koff/Kon, which were determined using both GraphPad Prism 5.0 (GraphPad, La Jolla, CA, USA) and BIAevaluation Software (GE Life Sciences, Amersham,UK).
We kinetically determined the binding affinity (KD = koff/kon) by SPR at physiological temperatures.

[2] = molecular target: T2, N-terminal SH2 domain of SHP-2 (Homo sapiens, UniProt Q06124); test: SPR (BIAcore 3000), single N-terminal SH2 domain of SHP-2; type: binding; conditions: equilibrium binding, single site fitting, HBS pH 7.4, 37°C, 10 µl/min, read-out: KD
T2 construct: SHP-2 (N)SH2 (His-tag) (OMC #3912); His-tag; host or cells: E. coli BL21(DE3)
T2 sequence (Q06124 6-102 limits assumed): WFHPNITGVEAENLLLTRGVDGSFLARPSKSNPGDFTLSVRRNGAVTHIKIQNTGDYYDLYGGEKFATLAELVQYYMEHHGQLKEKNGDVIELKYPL
Description: (§1) These proteins were expressed in BL21(DE3) cells (Invitrogen) induced with 1 mM IPTG for 4 hours at 37°C. Bacteria were pelleted and washed in PBS/0.5 M NaCl prior to sonication in PBS/0.5 M NaCl, in the presence of protease inhibitor cocktail (Complete, EDTA-free, Roche). Soluble and insoluble fractions were separated by centrifugation at 30,000 g for 60 minutes. Soluble fractions containing tagged proteins were incubated for 1 hour at 4°C with end-over-end mixing in the presence of washed Ni-Sepharose (GE Lifesceinces, Little Chalfont, U.K.) supplemented with 40 mM imidazole or Amylose resin (NEB, Herts, U.K). Proteins were eluted according to the manufacturer's instructions and purified by size exclusion chromatography on an AKTApurifier (GE Lifesciences, Little Chalfont, U.K).
Experiments were conducted on a BIAcore™ 3000 in HBS buffer (0.01 M HEPES, pH 7.4, containing 0.15 M NaCl, 3 mM EDTA, and 0.005% v/v P-20, GE Life Sciences, Amersham, UK). Streptavidin was coupled to a research grade CM5 chip (GE Life Sciences, Amersham, UK) as previously described, [13]. Protein-peptide interactions were carried out a rate of 10 µl/min at a constant temperature of 37°C to more accurately reflect physiological conditions. Biotinylated peptides were bound to the streptavidin-coated CM5 chips at 37°C to between 25–50 RU [14]. Purified monomeric SH2 domains were passed over the immobilised peptides at a range of concentrations. Anti-phosphotyrosine monoclonal antibody (Sigma, Poole, U.K.) was passed over the chip to saturation at the end of each experiment to verify peptide coverage on the chip. Binding affinities for the single ITIM/ITSM peptides were determined by plotting equilibrium binding measurements (RU) against SH2 domain protein concentration (Origin 8, OriginLab, MA, USA). KD was defined as the concentration of SH2 protein that gave half maximal binding to the peptide. […] KD was determined as Koff/Kon, which were determined using both GraphPad Prism 5.0 (GraphPad, La Jolla, CA, USA) and BIAevaluation Software (GE Life Sciences, Amersham,UK).

[3] = molecular target: T3, SHP-1 tandem (N+C) SH2 domains (Homo sapiens, UniProt P29350); test: SPR (BIAcore 3000), SHP-1 tandem (N+C) SH2 domains; type: binding
T3 construct: host or cells: E. coli BL21(DE3)
T3 sequence (P29350 1-213 limits assumed): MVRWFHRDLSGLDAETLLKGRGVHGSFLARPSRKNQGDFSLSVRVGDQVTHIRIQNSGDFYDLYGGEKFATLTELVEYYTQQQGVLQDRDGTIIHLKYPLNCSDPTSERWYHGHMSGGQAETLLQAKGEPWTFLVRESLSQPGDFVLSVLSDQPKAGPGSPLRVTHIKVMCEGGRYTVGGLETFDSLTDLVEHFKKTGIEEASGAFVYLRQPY
T3 sequence (O95866 182-241 partner limits assumed): T1 sequence (O95866 182-241 partner limits assumed)
Description: as §1
Experiments were conducted on a BIAcore™ 3000 in HBS buffer (0.01 M HEPES, pH 7.4, containing 0.15 M NaCl, 3 mM EDTA, and 0.005% v/v P-20, GE Life Sciences, Amersham, UK). […] Binding affinities for the single ITIM/ITSM peptides were determined by plotting equilibrium binding measurements (RU) against SH2 domain protein concentration (Origin 8, OriginLab, MA, USA). […] KD was determined as Koff/Kon, which were determined using both GraphPad Prism 5.0 (GraphPad, La Jolla, CA, USA) and BIAevaluation Software (GE Life Sciences, Amersham,UK). […]

[4] = molecular target: T4, Syk (Homo sapiens, UniProt P43405); test: SPR (BIAcore 3000), Syk SH2 domains; type: binding; conditions: HBS pH 7.4, 37°C, n = 3
T4 construct: made in house
Description: Experiments were conducted on a BIAcore™ 3000 in HBS buffer (0.01 M HEPES, pH 7.4, containing 0.15 M NaCl, 3 mM EDTA, and 0.005% v/v P-20, GE Life Sciences, Amersham, UK). Streptavidin was coupled to a research grade CM5 chip (GE Life Sciences, Amersham, UK) as previously described, [13]. Protein-peptide interactions were carried out a rate of 10 µl/min at a constant temperature of 37°C to more accurately reflect physiological conditions. Biotinylated peptides were bound to the streptavidin-coated CM5 chips at 37°C to between 25–50 RU [14]. Purified monomeric SH2 domains were passed over the immobilised peptides at a range of concentrations. Anti-phosphotyrosine monoclonal antibody (Sigma, Poole, U.K.) was passed over the chip to saturation at the end of each experiment to verify peptide coverage on the chip. Binding affinities for the single ITIM/ITSM peptides were determined by plotting equilibrium binding measurements (RU) against SH2 domain protein concentration (Origin 8, OriginLab, MA, USA). KD was defined as the concentration of SH2 protein that gave half maximal binding to the peptide. For the 60-mer peptides, SH2 domains were passed over the chip surface at 50 µl/min. KD was determined as Koff/Kon, which were determined using both GraphPad Prism 5.0 (GraphPad, La Jolla, CA, USA) and BIAevaluation Software (GE Life Sciences, Amersham,UK). […]

[5] = system: washed human platelets (CRP); test: Light transmission aggregometry of TAT-peptide-loaded platelets, CRP; type: cell-based; conditions: for effect on EC50 / sensitivity to CRP: washed human platelets, TAT peptide loading
Description: (§2) Whole blood was taken from healthy volunteers and collected into 50 ml syringes containing 5 ml acid citrate-dextrose (ACD) in accordance with procedures approved by the Local Research Ethics Committee (Ref: 07/Q1603/17). Platelet-rich plasma (PRP) was isolated by centrifugation at 200 g for 10 minutes at room temperature. PRP was pooled and 10 µg PGI2 was added before centrifugation at 1000 g for 10 minutes at room temperature. Platelets were resuspended in 1 ml Tyrodes buffer (134 mM NaCl, 0.34 mM Na2HPO4, 2.9 mM KCl, 12 mM NaHCO3, 20 mM HEPES, 5 mM glucose, 1 mM MgCl2, pH 7.3) pre-warmed to 30°C and 150 µl ACD. The volume was adjusted to 25 ml with Tyrodes buffer, followed by 3 ml ACD and 1.25 µg PGI2. Cells were centrifuged at 1000 g for 10 minutes at room temperature and the resultant cell pellet was resuspended in 1 ml pre-warmed Tyrodes buffer before adjusting the volume to a final cell density of 4×10^8 cells/ml (aggregations) or 2×10^9 cells/ml (peptide pull downs). Where appropriate, 1 mM EGTA, 10 µM indomethacin and 2 U/ml apyrase were added to inhibit aggregations (referred to as non-aggregating conditions).
(§3) Fluorescein-labelled, TAT-G6B-b peptides were synthesised by Peptide Protein Research Ltd (Hampshire, U.K.). Peptides were either unphosphorylated, or phosphorylated at both ITIMs as follows: Dual phosphorylated peptide – FLUO- […]*[…]*AVVV or unphosphorylated control peptide (lacking tyrosine phosphorylation) - FLUO- […]. TAT sequences are underlined and phosphorylated tyrosines marked with an asterisk. Peptides were loaded into washed platelets by incubation with 10 µM peptide for 15 minutes at 30°C, after which they were assessed by light transmission aggregometry. Peptide loading conditions were optimised and verified by flow cytometry.
(§4) Washed human platelets were loaded with TAT-G6B-b peptides (either dual phosphorylated or unphosphorylated) and changes in CRP efficacy determined by light transmission aggregometry. […] Thrombin-mediated activation was unaffected (data not shown). […] Peptide loading was verified by flow cytometry (Figure 9C and 9D.

[6] = system: washed human platelets (collagen); test: Light transmission aggregometry of TAT-peptide-loaded platelets, collagen; type: cell-based; conditions: for effect on EC50 / sensitivity to collagen: washed human platelets, TAT peptide loading
Description: as §2, §3, §4

[7] = system: washed human platelets (thrombin); test: Activation of TAT-peptide-loaded platelets, thrombin; type: cell-based; conditions: platelets loaded with 10 µM peptide, 15 min, 30°C; data not shown
Description: Whole blood was taken from healthy volunteers and collected into 50 ml syringes containing 5 ml acid citrate-dextrose (ACD) in accordance with procedures approved by the Local Research Ethics Committee (Ref: 07/Q1603/17). Platelet-rich plasma (PRP) was isolated by centrifugation at 200 g for 10 minutes at room temperature. PRP was pooled and 10 µg PGI2 was added before centrifugation at 1000 g for 10 minutes at room temperature. Platelets were resuspended in 1 ml Tyrodes buffer (134 mM NaCl, 0.34 mM Na2HPO4, 2.9 mM KCl, 12 mM NaHCO3, 20 mM HEPES, 5 mM glucose, 1 mM MgCl2, pH 7.3) pre-warmed to 30°C and 150 µl ACD. The volume was adjusted to 25 ml with Tyrodes buffer, followed by 3 ml ACD and 1.25 µg PGI2. […]
Fluorescein-labelled, TAT-G6B-b peptides were synthesised by Peptide Protein Research Ltd (Hampshire, U.K.). […] Peptides were loaded into washed platelets by incubation with 10 µM peptide for 15 minutes at 30°C, after which they were assessed by light transmission aggregometry. […]
Washed human platelets were loaded with TAT-G6B-b peptides (either dual phosphorylated or unphosphorylated) and changes in CRP efficacy determined by light transmission aggregometry. […]

[8] = system: SHP-1; test: Peptide pull down from platelet lysate, SHP-1; type: binding; conditions: human platelet lysate, Western blotting; 4°C, 30 min; n = 3
Description: (§5) Forty micrograms of peptide were coupled to 50 µl of Streptactin beads (50% slurry) for 30 minutes at 4°C with end-over-end mixing, washed twice with 1 ml PBS and resuspended in 100 µl of modified Tyrodes buffer. Platelets were resuspended in modified Tyrodes buffer at a concentration of 2×10^9 cells/ml under non-aggregating conditions (10 µM indomethacin, 1 mM EGTA and 2 U/ml apyrase). Cells were activated with 1 ug/ml CRP for 90 seconds under stirring, but non-aggregating conditions, before reactions were terminated by the addition of 500 µl 2× NP40 lysis buffer (150 mM NaCl, 10 mM Tris pH 7.5, 1 mM EGTA, 1 mM EDTA, 1% NP-40) with inhibitors (Roche Complete mini protease inhibitor cocktail, 5 mM NaF, 5 mM NaVO4, 250 nM beta-glycerophosphate) and placed on ice. Lysates were pooled and pre-cleared as a batch with 200 µl streptactin beads (50% slurry). Non-specific interactions were then removed by centrifugation at 4,750 g for 15 minutes at 4°C. Pre-cleared lysates were incubated with 50 µl peptide/bead conjugate (50% slurry) at 4°C for 30 minutes with end-over-end mixing. […]
(§6) Although likely that these interactions are direct, this has not yet been conclusively shown. […] Peptide associated material was separated by SDS-PAGE and assessed for the presence of SHP-1 and SHP-2 by Western blotting, both of which were clearly identified (Figure 1C).

[9] = system: SHP-2; test: Peptide pull down from platelet lysate, SHP-2; type: binding; conditions: human platelet lysate, Western blotting; 4°C, 30 min; n = 3
Description: as §5, §6

[10] = 10 µM peptide, 15 min, 30°C, vs vehicle control
[11] = listed as G6B-b dual phosphorylated peptide

Kd [1]: 0.48 ± 0.09 nM | Kd [2]: 130 nM | Koff ([3]; 37°C, dual peptide, read-out: Koff (dissociation rate)): 0.01 s⁻¹ | Kd ([3]; kinetic (koff/kon), single site model, HBS pH 7.4, 37°C, 50 µl/min, mean, n = 5, SEM, read-out: binding affinity (KD)): 35.3 ± 4.3 nM | Kd [4]: ~25000 nM
Substance: PLVKTEPQRPVKEEEPKIPGDLDQEPSLL[pY]ADLDHLALSRPRRLSTADPADASTI[pY]AVVV [dual phosphopeptide]

Substance: FLUO- GRKKRRQRRRPQDLDQEPSLLY*ADLDHLALSRPRRLSTADPADASTIY*AVVV [dual phosphorylated G6B-b TAT-peptide, Fluorescein-labelled TAT-G6B-b peptide phosphorylated at both ITIMs]
fold increase in EC50 of CRP [5, 10]: ~1.65 fold | effect on EC50 / sensitivity to CRP [5]: can reduce the EC50 for both CRP and collagen | effect on EC50 / sensitivity to CRP [5, 11]: reduces platelet sensitivity to GPVI agonists | fold increase in EC50 of collagen [6, 10]: 2.5 fold | effect on EC50 / sensitivity to collagen [6]: can reduce the EC50 for both CRP and collagen | effect on EC50 / sensitivity to collagen [6, 11]: reduces platelet sensitivity to GPVI agonists | thrombin-mediated activation [7]: unaffected

Substance: unphosphorylated control peptides: biotinylated 60-mer G6B-b peptide (182 to 241), unphosphorylated (PLVKTEPQRPVKEEEPKIPGDLDQEPSLLYADLDHLALSRPRRLSTADPADASTIYAVVV; also: biotinylated (end not given here))
association [8]: No SHP-1 or SHP-2 bound | association [9]: No SHP-1 or SHP-2 bound

— publication PMC3501490 (PLoS ONE, 2012)
